According to ChEMBL document CHEMBL1201862, “PubChem BioAssay data set” (2004):
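All cell lines were grown in 96-well plates and treated with compound for 48 hours. At the GI50, growth is halved.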 The source made the active and inactive calls. Cut-off read from the data, not from the text of the source: active = GI50 up to about 1.1 µM and inactive = higher.

How the values were obtained:
Assay in all cases: DTP human tumour cell line panel, 48 h
786-0 = system: 786-0
A498 = system: A498
BT-549 = system: BT-549
CAKI-1 = system: CAKI-1
DU-145 = system: DU-145
HOP-92 = system: HOP-92
Hs-578T = system: Hs-578T
MDA-MB-435 = system: MDA-MB-435
NCI-H23 = system: NCI-H23
OVCAR-8 = system: OVCAR-8
PC-3 = system: PC-3
SF-295 = system: SF-295
SR = system: SR
HCC 2998 = system: HCC 2998
MCF7 = system: MCF7
SNB-75 = system: SNB-75

SMILES	GI50 (786-0)	GI50 (A498)	GI50 (BT-549)	GI50 (CAKI-1)	GI50 (DU-145)	GI50 (HOP-92)	GI50 (Hs-578T)	GI50 (MDA-MB-435)	GI50 (NCI-H23)	GI50 (OVCAR-8)	GI50 (PC-3)	GI50 (SF-295)	GI50 (SR)	GI50 (HCC 2998)	GI50 (MCF7)	GI50 (SNB-75)
c1ccc(SC(Sc2ccccc2)c2ccc3c(c2)OCO3)cc1	> 100 µM (inactive)	90.2 µM (inactive)	> 100 µM (inactive)	> 100 µM (inactive)	> 100 µM (inactive)	16.3 µM (inactive)	> 100 µM (inactive)	> 100 µM (inactive)	> 100 µM (inactive)	> 100 µM (inactive)	> 100 µM (inactive)	> 100 µM (inactive)	> 100 µM (inactive)			
C/C(=N/NC(=S)Nc1ccc([N+](=O)[O-])cc1)c1cccc(/C(C)=N\NC(=S)Nc2ccc([N+](=O)[O-])cc2)n1	0.264 µM (active)	1.09 µM (active)	0.463 µM (active)	0.631 µM (active)		0.782 µM (active)	3.9 µM (inactive)	0.931 µM (active)	0.877 µM (active)	0.329 µM (active)	0.6 µM (active)	0.564 µM (active)	0.216 µM (active)	1.02 µM (active)	0.341 µM (active)	3.3 µM (inactive)
CCOC(=O)c1c(-c2ccc(OC)cc2)c(C#N)c(=S)n(C2OC(COC(C)=O)C(OC(C)=O)C(OC(C)=O)C2OC(C)=O)c1C (stereo unspecified)	> 100 µM (inactive)	> 100 µM (inactive)		> 100 µM (inactive)	> 100 µM (inactive)	4.32 µM (inactive)		> 100 µM (inactive)	> 100 µM (inactive)	> 100 µM (inactive)	30.8 µM (inactive)	> 100 µM (inactive)	> 100 µM (inactive)	> 100 µM (inactive)	> 100 µM (inactive)	12.7 µM (inactive)
C/C(Cl)=N\OC(=O)Nc1ccc(C)cc1	18.7 µM (inactive)	18.8 µM (inactive)		16.7 µM (inactive)	> 10 µM (inactive)	20.7 µM (inactive)	28.6 µM (inactive)		20.7 µM (inactive)	17.9 µM (inactive)	15.8 µM (inactive)	16.6 µM (inactive)	9.64 µM (inactive)	16.9 µM (inactive)	11.9 µM (inactive)	12.8 µM (inactive)
COc1ccc(/C=C/C(=N/NC(=O)N/N=C(/C=C/c2ccc(OC)cc2)C(C)(C)CN2CCCCC2)C(C)(C)CN2CCCCC2)cc1	1.59 µM (inactive)	2.22 µM (inactive)	1.98 µM (inactive)	1.83 µM (inactive)	> 10 µM (inactive)	1.47 µM (inactive)	1.87 µM (inactive)		3.03 µM (inactive)	1.8 µM (inactive)	2.28 µM (inactive)	1.87 µM (inactive)	0.234 µM (active)	1.74 µM (inactive)	2.35 µM (inactive)	1.37 µM (inactive)
CCOP(C)(=O)C(Cc1c[nH]c2ccccc12)C(=O)O (stereo unspecified)	> 100 µM (inactive)	> 100 µM (inactive)	> 100 µM (inactive)	> 100 µM (inactive)	> 100 µM (inactive)	> 100 µM (inactive)		> 100 µM (inactive)		> 100 µM (inactive)	> 100 µM (inactive)	> 100 µM (inactive)	> 100 µM (inactive)	> 100 µM (inactive)	> 100 µM (inactive)	> 100 µM (inactive)
CC(NO)/C(=N/O)c1ccco1 (stereo unspecified)	> 10 µM (inactive)		> 10 µM (inactive)	> 10 µM (inactive)	> 10 µM (inactive)	> 10 µM (inactive)		> 10 µM (inactive)	> 10 µM (inactive)	> 10 µM (inactive)	> 10 µM (inactive)	> 10 µM (inactive)	> 10 µM (inactive)	> 10 µM (inactive)	> 10 µM (inactive)	
N#Cc1nc(COCCOCc2ccc(F)cc2)oc1N	> 100 µM (inactive)	> 100 µM (inactive)	> 100 µM (inactive)	> 100 µM (inactive)	> 100 µM (inactive)			> 100 µM (inactive)	> 100 µM (inactive)	> 100 µM (inactive)	> 100 µM (inactive)	> 100 µM (inactive)	> 100 µM (inactive)	> 100 µM (inactive)	> 100 µM (inactive)	> 100 µM (inactive)
Cc1cc(C)n(-c2nc3ccccc3c(=O)n2-c2ccccc2)n1	> 100 µM (inactive)	> 100 µM (inactive)		> 100 µM (inactive)	> 100 µM (inactive)			> 100 µM (inactive)	> 100 µM (inactive)	> 100 µM (inactive)	> 100 µM (inactive)	> 100 µM (inactive)	> 100 µM (inactive)	> 100 µM (inactive)	> 100 µM (inactive)	> 100 µM (inactive)
COc1ccc2nc3c([N+](=O)[O-])ccc(NCCN(C)C)c3c(N)c2c1	1.18 µM (inactive)	2.07 µM (inactive)		1.8 µM (inactive)	1.75 µM (inactive)	0.695 µM (active)	2.62 µM (inactive)		1.69 µM (inactive)	1.66 µM (inactive)	1.46 µM (inactive)	1.75 µM (inactive)	0.679 µM (active)		0.513 µM (active)	1.08 µM (active)
O=S(=O)(O)c1cc(/N=N/c2c(O)ccc3ccccc23)cc2c(S(=O)(=O)O)cccc12	> 100 µM (inactive)	> 100 µM (inactive)	> 100 µM (inactive)	> 100 µM (inactive)		> 100 µM (inactive)	> 100 µM (inactive)	> 100 µM (inactive)		> 100 µM (inactive)	> 100 µM (inactive)	> 100 µM (inactive)	> 100 µM (inactive)	> 100 µM (inactive)	> 100 µM (inactive)	> 100 µM (inactive)
c1ccc(-c2ccc(-c3ccc(C4=NCCN4)cc3)o2)cc1	1.68 µM (inactive)	1.76 µM (inactive)	6.28 µM (inactive)	2.34 µM (inactive)	3.25 µM (inactive)	2.17 µM (inactive)		1.97 µM (inactive)	4.32 µM (inactive)	3.59 µM (inactive)	2.23 µM (inactive)	1.92 µM (inactive)	0.773 µM (active)	1.35 µM (inactive)	1.91 µM (inactive)	2.38 µM (inactive)
CC(=O)/C(=C/NC(=S)Nc1ccc(Cl)c(Cl)c1)C(=O)Nc1ccccc1C	35 µM (inactive)	26.2 µM (inactive)	25.5 µM (inactive)	22.3 µM (inactive)	26.4 µM (inactive)	22 µM (inactive)		28.3 µM (inactive)	23.6 µM (inactive)	18.9 µM (inactive)		32 µM (inactive)		32.3 µM (inactive)	26.9 µM (inactive)	18.1 µM (inactive)
CCCNC(=O)NNC(=O)c1c[nH]c2nc(C)ccc2c1=O	> 100 µM (inactive)	> 100 µM (inactive)	> 100 µM (inactive)	> 100 µM (inactive)	> 100 µM (inactive)		> 100 µM (inactive)	> 100 µM (inactive)	> 100 µM (inactive)	> 100 µM (inactive)	> 100 µM (inactive)	> 100 µM (inactive)			> 100 µM (inactive)	
COC(=O)/C=C/c1ccc2c(c1)CC1(Cc3ccccc3C1)C2	> 100 µM (inactive)	> 100 µM (inactive)				> 100 µM (inactive)	23.6 µM (inactive)	41.3 µM (inactive)	55.7 µM (inactive)	> 100 µM (inactive)	> 100 µM (inactive)	> 100 µM (inactive)	32.6 µM (inactive)	> 100 µM (inactive)	> 100 µM (inactive)	
Cc1nc2ccc(F)cc2c2c1CCO2	> 100 µM (inactive)	> 100 µM (inactive)	80 µM (inactive)	15.2 µM (inactive)	> 100 µM (inactive)	78.7 µM (inactive)	> 100 µM (inactive)	70.1 µM (inactive)	> 100 µM (inactive)	> 100 µM (inactive)		> 100 µM (inactive)	> 100 µM (inactive)	79.1 µM (inactive)		> 100 µM (inactive)
CN(c1ccc(Cl)cc1)S(=O)(=O)c1ccc([N+](=O)[O-])cc1	> 100 µM (inactive)		> 100 µM (inactive)	> 100 µM (inactive)	> 100 µM (inactive)		> 100 µM (inactive)	> 100 µM (inactive)	> 100 µM (inactive)	> 100 µM (inactive)	> 100 µM (inactive)	> 100 µM (inactive)		> 100 µM (inactive)	> 100 µM (inactive)	> 100 µM (inactive)
CC(=NNC(=S)Nc1ccccc1C)c1cccc(C(C)=NNC(=S)Nc2ccccc2C)n1	4.13 µM (inactive)	> 100 µM (inactive)		42.9 µM (inactive)	23.1 µM (inactive)	11.4 µM (inactive)		60.4 µM (inactive)	65.3 µM (inactive)	17.4 µM (inactive)	32.1 µM (inactive)	8.93 µM (inactive)	0.262 µM (active)	> 100 µM (inactive)	65.2 µM (inactive)	2.36 µM (inactive)
COc1ccc(C2=C(OC(C)=O)c3cccn3-c3ccccc3S2)cc1	2.46 µM (inactive)			4.55 µM (inactive)	2.46 µM (inactive)	1.58 µM (inactive)		0.265 µM (active)	1.89 µM (inactive)	5.82 µM (inactive)	2.3 µM (inactive)	1.45 µM (inactive)	3.36 µM (inactive)	2.95 µM (inactive)	3.48 µM (inactive)	2.41 µM (inactive)
COc1cc(C/C=C/c2ccccc2)c(OC)cc1O [VIOLASTYRENE]	13.8 µM (inactive)	80.4 µM (inactive)	24.7 µM (inactive)	26.2 µM (inactive)	17.3 µM (inactive)	15.4 µM (inactive)	30.8 µM (inactive)	18.5 µM (inactive)	21.3 µM (inactive)	12.6 µM (inactive)	21.6 µM (inactive)			16.7 µM (inactive)		24.6 µM (inactive)
